# Results published in US20240158446A1, “CYCLIC COMPOUND HAVING SELECTIVE INHIBITORY ACTION ON KRAS OVER HRAS AND NRAS” (CHUGAI SEIYAKU KABUSHIKI KAISHA, priority 2021, published 2024).
# Read-outs that look alike come from different tables or passages of the source.
# How the values were obtained:
# [1] = molecular target: GDP-bound KRAS wild-type protein (Homo sapiens, UniProt P01116); assay: Binding to KRAS by surface plasmon resonance (SPR), Single Cycle Kinetics; details: GDP-bound KRAS wild-type protein, read-out: KRAS KD
# [2] = molecular target: GDP-bound NRAS wild-type protein (Homo sapiens, UniProt P01111); assay: Binding to NRAS by surface plasmon resonance (SPR), Single Cycle Kinetics; details: for NRAS/KRAS (ratio of KD value for NRAS to KD value for KRAS): SPR, GDP-bound NRAS wild-type protein vs GDP-bound KRAS wild-type protein; for NRAS/KRAS (ratio of KD value with respect to GDP-bound NRAS wild-type protein to KD value with respect to KRAS): SPR KD ratio NRAS/KRAS, class symbols
# [3] = molecular target: GDP-bound HRAS wild-type protein (Homo sapiens, UniProt P01112); assay: Binding to HRAS by surface plasmon resonance (SPR), Single Cycle Kinetics; details: for HRAS/KRAS (ratio of KD value for HRAS to KD value for KRAS): SPR, GDP-bound HRAS wild-type protein vs GDP-bound KRAS wild-type protein; for HRAS/KRAS (ratio of KD value with respect to GDP-bound HRAS wild-type protein to KD value with respect to KRAS): SPR KD ratio HRAS/KRAS, class symbols
# [4] = tested on: human lung cancer strain NCI-H441;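 note: cell proliferation inhibition after four days measured by CellTiter-Glo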
# [5] = SPR, Single Cycle Kinetics, 1:1 binding model
# [6] = SPR Single Cycle Kinetics, 1:1 binding model
# GDP-bound HRAS wild-type protein, sequence (P01112 whole entry): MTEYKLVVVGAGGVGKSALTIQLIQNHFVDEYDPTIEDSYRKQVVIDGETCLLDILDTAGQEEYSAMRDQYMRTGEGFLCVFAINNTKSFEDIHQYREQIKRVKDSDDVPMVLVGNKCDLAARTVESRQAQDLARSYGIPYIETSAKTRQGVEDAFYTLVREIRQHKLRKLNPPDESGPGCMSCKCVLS
# GDP-bound NRAS wild-type protein, sequence (P01111 whole entry): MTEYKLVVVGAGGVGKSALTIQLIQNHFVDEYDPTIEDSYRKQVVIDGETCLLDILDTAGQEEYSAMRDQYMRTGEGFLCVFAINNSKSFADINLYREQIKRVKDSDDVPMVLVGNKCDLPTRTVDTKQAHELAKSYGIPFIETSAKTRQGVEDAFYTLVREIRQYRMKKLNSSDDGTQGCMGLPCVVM
# GDP-bound KRAS wild-type protein, sequence (P01116 whole entry): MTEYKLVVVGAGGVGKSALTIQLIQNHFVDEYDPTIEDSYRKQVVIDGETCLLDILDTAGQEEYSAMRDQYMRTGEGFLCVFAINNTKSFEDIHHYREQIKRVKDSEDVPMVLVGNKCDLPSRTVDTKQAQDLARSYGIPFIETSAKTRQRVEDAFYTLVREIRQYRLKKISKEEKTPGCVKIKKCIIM
SMILES,"Kd [1, 5] [nM]",IC50 [4] [nM],"Kd [1, 6] [nM]","Kd ([1]; SPR, Single Cycle Kinetics) [nM]",NRAS/KRAS (ratio of KD value for NRAS to KD value for KRAS) ([2]; KD ratio class),HRAS/KRAS (ratio of KD value for HRAS to KD value for KRAS) ([3]; KD ratio class),NRAS/KRAS (ratio of KD value with respect to GDP-bound NRAS wild-type protein to KD value with respect to KRAS) [2],HRAS/KRAS (ratio of KD value with respect to GDP-bound HRAS wild-type protein to KD value with respect to KRAS) [3],NRAS/KRAS (ratio of KD value for NRAS to KD value for KRAS) [2],HRAS/KRAS (ratio of KD value for HRAS to KD value for KRAS) [3]
"CCO[C@@H]1C[C@H]2C(=O)NC3(CCC3)C(=O)N(C)[C@@H](C3CCCC3)C(=O)N(C)[C@H](C(=O)N(C)C)CC(=O)N(C)[C@@H](CC(C)C)C(=O)N[C@@H]([C@@H](C)CC)C(=O)N(C)CC(=O)N(C)[C@H]3C/C=C\CCN(C3=O)[C@@H](Cc3ccc(C)cc3)C(=O)N(C)CC(=O)N[C@@H](CCc3cc(F)c(C(F)(F)F)c(F)c3)C(=O)N2C1 [PP1414, (2S,8S,12R,14S,20S,23S,27S,30S,36S,38Z)-20-cyclopentyl-8-[2-[3,5-difluoro-4-(trifluoromethyl)phenyl]ethyl]-12-ethoxy-27-isobutyl-N,N,4,19,22,26,32,35-octamethyl-30-[(1S)-1-methylpropyl]-3,6,9,15,18,21,25,28,31,34,42-undecaoxo-2-(p-tolylmethyl)spiro[1,4,7,10,16,19,22,26,29,32,35-undecazatricyclo[34.5.1.0^10,14]dotetracont-38-ene-17,1′-cyclobutane]-23-carboxamide]",0.074,4.4,–,–,A (a compound having 10 or more and less than 20 is denoted as A),B (a compound having 3 or more and less than 10 is denoted as B),–,–,–,–
CCC[C@H]1C(=O)N[C@@H]([C@@H](C)CC)C(=O)N(C2CC2)CC(=O)N(C)[C@H]2C/C=C\CCN(C2=O)[C@@H](Cc2ccc(C)cc2)C(=O)N(C)CC(=O)N[C@@H](CCc2ccc(Cl)c(Cl)c2)C(=O)N2C[C@H](OC3CCC3)C[C@H]2C(=O)NC2(CC(C)(C)C2)C(=O)N(C)[C@@H](C2CCCC2)C(=O)N(C)[C@H](C(=O)N(C)C)CC(=O)N1C [PP2616],–,66.4,0.8,–,–,–,A (a compound having 10 or more and less than 20 is denoted as A),A (a compound having 10 or more and less than 20 is denoted as A),–,–
CCO[C@@H]1C[C@H]2C(=O)N(C)C3(CC(C)(C)C3)C(=O)N(C)[C@@H](C3CCCC3)C(=O)N(C)[C@H](C(=O)N(C)C)CC(=O)N(C)[C@H]3CCC/C=C/c4ccc(cc4)C[C@@H](C(=O)N(C)CC(=O)N[C@@H](CCc4ccc(Cl)c(Cl)c4)C(=O)N2C1)N1CC/C=C\C[C@@H](C1=O)N(C)C(=O)CN(C)C(=O)[C@H]([C@@H](C)CC)NC3=O [PP3059],–,2.1,–,0.055,–,–,–,–,A (a compound having 10 or more and less than 20 is denoted as A),A (a compound having 10 or more and less than 20 is denoted as A)
CCO[C@@H]1C[C@H]2C(=O)NC3(CCC3)C(=O)N(C)[C@@H](C3CCCC3)C(=O)N(C)[C@H](C(=O)N(C)C)CC(=O)N(C)[C@@H](Cc3ccc(C#N)cc3)C(=O)N[C@@H]([C@@H](C)CC)C(=O)N(C)CC(=O)N(C)[C@H]3CCCCCN(C3=O)[C@@H](Cc3ccc(C(F)(F)F)cc3)C(=O)N(C)CC(=O)N[C@@H](CCc3cc(F)c(C(F)(F)F)c(F)c3)C(=O)N2C1 [PP1173],–,70.8,–,0.18,–,–,–,–,B (a compound having 3 or more and less than 10 is denoted as B),B (a compound having 3 or more and less than 10 is denoted as B)
CCO[C@@H]1C[C@H]2C(=O)NC3(CCC3)C(=O)N(C)[C@@H](C3CCCC3)C(=O)N(C)[C@H](C(=O)N3CCOCC3)CC(=O)N(C)[C@@H](CC3CC3)C(=O)N[C@@H]([C@@H](C)CC)C(=O)N(C)CC(=O)N(C)[C@H]3C/C=C\CCN(C3=O)[C@@H](Cc3ccc(C(F)(F)F)cc3)C(=O)N(C)CC(=O)N[C@@H](CCc3cc(F)c(C(F)(F)F)c(F)c3)C(=O)N2C1 [PP1283],0.2,42.6,–,–,AA (a compound having 20 or more is denoted as AA),A (a compound having 10 or more and less than 20 is denoted as A),–,–,–,–
"CCO[C@@H]1C[C@H]2C(=O)NC3(CCC3)C(=O)N(C)[C@@H](C3CCCC3)C(=O)N(C)[C@H](C(=O)N3CCCC3)CC(=O)N(C)[C@@H](CC)C(=O)N[C@@H]([C@@H](C)CC)C(=O)N(C)CC(=O)N(C)[C@H]3C/C=C\CCN(C3=O)[C@@H](CC3CCCCC3)C(=O)N(C)CC(=O)N[C@@H](CCc3cc(F)c(C(F)(F)F)c(F)c3)C(=O)N2C1 [PP1443, (2S,8S,12R,14S,20S,23S,27S,30S,36S,38Z)-2-(cyclohexylmethyl)-20-cyclopentyl-8-[2-[3,5-difluoro-4-(trifluoromethyl)phenyl]ethyl]-12-ethoxy-27-ethyl-4,19,22,26,32,35-hexamethyl-30-[(1S)-1-methylpropyl]-23-(pyrrolidine-1-carbonyl)spiro[1,4,7,10,16,19,22,26,29,32,35-undecazatricyclo[34.5.1.0^10,14]dotetracont-38-ene-17,1′-cyclobutane]-3,6,9,15,18,21,25,28,31,34,42-undecone]",0.15,34.8,–,–,AA (a compound having 20 or more is denoted as AA),A (a compound having 10 or more and less than 20 is denoted as A),–,–,–,–

# Second part, led by results:
"Kd [1, 5] [nM]",IC50 [4] [nM],"Kd [1, 6] [nM]","Kd ([1]; SPR, Single Cycle Kinetics) [nM]",SMILES,NRAS/KRAS (ratio of KD value for NRAS to KD value for KRAS) ([2]; KD ratio class),HRAS/KRAS (ratio of KD value for HRAS to KD value for KRAS) ([3]; KD ratio class),NRAS/KRAS (ratio of KD value with respect to GDP-bound NRAS wild-type protein to KD value with respect to KRAS) [2],HRAS/KRAS (ratio of KD value with respect to GDP-bound HRAS wild-type protein to KD value with respect to KRAS) [3],NRAS/KRAS (ratio of KD value for NRAS to KD value for KRAS) [2],HRAS/KRAS (ratio of KD value for HRAS to KD value for KRAS) [3]
–,15.3,–,0.16,CCCOC[C@H]1C(=O)N[C@@H]([C@@H](C)CC)C(=O)N(C)CC(=O)N(C)[C@H]2C/C=C\CCN(C2=O)[C@@H](Cc2ccc(C)cc2)C(=O)N(C)CC(=O)N[C@@H](CCc2cc(F)c(C(F)(F)F)c(F)c2)C(=O)N2C[C@@H](C)C[C@H]2C(=O)NC2(CC(C)(C)C2)C(=O)N(C)[C@@H](C2CCCC2)C(=O)N(C)[C@H](C(=O)N(C)CC)CC(=O)N1C [PP2471],–,–,–,–,A (a compound having 10 or more and less than 20 is denoted as A),A (a compound having 10 or more and less than 20 is denoted as A)
0.077,5.1,–,–,CCO[C@@H]1C[C@H]2C(=O)NC3(CCCC3)C(=O)N(C)[C@@H](C3CCCC3)C(=O)N(C)[C@H](C(=O)N3CCOCC3)CC(=O)N(C)[C@@H](CC)C(=O)N[C@@H]([C@@H](C)CC)C(=O)N(C)CC(=O)N(C)[C@H]3CC[C@@H](C)CN(C3=O)[C@@H](Cc3ccc(C(F)(F)F)cc3)C(=O)N(C)CC(=O)N[C@@H](CCc3cc(F)c(C(F)(F)F)c(F)c3)C(=O)N2C1 [PP1371],A (a compound having 10 or more and less than 20 is denoted as A),B (a compound having 3 or more and less than 10 is denoted as B),–,–,–,–
–,10.4,–,0.06,"CCO[C@@H]1C[C@H]2C(=O)NC3(CCC3)C(=O)N(C)[C@@H](C3CCCC3)C(=O)N(C)[C@H](C(=O)N(C)C)CC(=O)N(C)[C@@H](CC3CCCC3)C(=O)N[C@@H]([C@@H](C)CC)C(=O)N(C)CC(=O)N(C)[C@H]3C/C=C\CCN(C3=O)[C@@H](Cc3ccc(C(F)(F)F)cc3)C(=O)N(C)CC(=O)N[C@@H](CCc3cc(F)c(C(F)(F)F)c(F)c3)C(=O)N2C1 [PP1112, (2S,8S,12R,14S,20S,23S,27S,30S,36S,38Z)-20-cyclopentyl-27-(cyclopentylmethyl)-8-[2-[3,5-difluoro-4-(trifluoromethyl)phenyl]ethyl]-12-ethoxy-N,N,4,19,22,26,32,35-octamethyl-30-[(1S)-1-methylpropyl]-3,6,9,15,18,21,25,28,31,34,42-undecaoxo-2-[[4-(trifluoromethyl)phenyl]methyl]spiro[1,4,7,10,16,19,22,26,29,32,35-undecazatricyclo[34.5.1.0^10,14]dotetracont-38-ene-17,1′-cyclobutane]-23-carboxamide]",–,–,–,–,A (a compound having 10 or more and less than 20 is denoted as A),B (a compound having 3 or more and less than 10 is denoted as B)
–,122,2.9,–,CCOC[C@H]1C(=O)N[C@@H]([C@@H](C)CC)C(=O)N(C2CC2)CC(=O)N(C)[C@H]2C/C=C\CCN(C2=O)[C@@H](Cc2ccc(C)cc2)C(=O)N(C)CC(=O)N[C@@H](CCc2ccc(Cl)c(Cl)c2)C(=O)N2C[C@H](OCC)C[C@H]2C(=O)NC2(CC(C)(C)C2)C(=O)N(C)[C@@H](CC2CCC2)C(=O)N(C)[C@H](C(=O)N(C)C)CC(=O)N1C [PP2762],–,–,A (a compound having 10 or more and less than 20 is denoted as A),A (a compound having 10 or more and less than 20 is denoted as A),–,–
–,5.2,–,0.12,CCOC[C@H]1C(=O)N[C@@H]([C@@H](C)CC)C(=O)N(C)CC(=O)N(C)[C@H]2C/C=C\CCN(C2=O)[C@@H](Cc2ccc(C(F)(F)F)cc2)C(=O)N(C)CC(=O)N[C@@H](CCc2ccc(C(F)(F)F)c(OC)c2)C(=O)N2C[C@H](OCC)C[C@H]2C(=O)N(C)C2(CCC2)C(=O)N(C)[C@@H](C(CC)CC)C(=O)N(C)[C@H](C(=O)N(C)C)CC(=O)N1C [PP2383],–,–,–,–,A (a compound having 10 or more and less than 20 is denoted as A),A (a compound having 10 or more and less than 20 is denoted as A)
